For data set [1] the following is noted: intraperitoneal administration to female ddY mice in this test; cited from earlier work.
Data set [2] has as its system liver. As to the kind of experiment: Reducing liver toxicity by organic halogen compounds (CCl4 :CHCl3). Format: in vivo, mouse (female ddY strain). To be noted: for TBA value (lipid peroxide) in liver: Day 1 after CCl4 :CHCl3, FIG. 4a; for calcium content in liver: over 3 days after CCl4 :CHCl3, FIG. 4b. As for the experimental part:
In liquid paraffin were dissolved 0.0025 ml of carbon tetrachloride (CCl4) and 0.0050 ml of chloroform (CHCl3) to form 0.1 ml of a solution. The solution was intraperitoneally administered to female ddY strain mice of 4 week age having a mean body weight of 25 g. With passage of day, concentration of lipid peroxide (TBA value, by thiobarbituric acid reaction), calcium concentration and a ratio of saturated fatty acids to unsaturated fatty acids (as an index of fatty liver), in liver were measured over 3 days. […] Ascorbic acid (AsA) and R-345 (4 mg each was dissolved in 0.1 ml of physiological saline, respectively) were intraperitoneally administered once a day every day from 6 hours after CCl4 :CHCl3 was administered to the day before the mice were sacrificed.

Data set [3] relates to erythrocyte membrane. Kind of data set: Inhibition of tert-butyl hydroperoxide-induced peroxidation of erythrocyte membrane (thiobarbituric acid). Format: biochemical, human. As to conditions: for amount of lipid peroxide / formation of peroxide: human red ghost, tert-butyl hydroperoxide, 37° C., 30 minutes, 535 nm (FIG. 1). From the text:
Human blood cells were subjected to hemolysis and red ghost (membrane segments containing hemoglobin) was collected by a centrifuging machine. […] The reaction product was quantitatively determined by colorimetry at 535 nm.

The subject of data set [4] is ddY strain mice. As to the kind of experiment: Reducing radiation injury (X rays 800 roentgen): survival days of mice. Format: in vivo, mouse (female ddY strain). To be noted: for mice survived longer than 30 days / mice survived on Day 15 / average number of survival days: X rays 800 roentgen, FIG. 3; for mice survived longer than 30 days: 20 mice, R-345 285 mg/kg i.v. and/or vitamin E 200 mg/kg i.m.; for mice survived on Day 15: R-345 285 mg/kg i.v. 3 times and/or vitamin E 200 mg/kg i.m. 3 times; for average number of survival days: survival longer than 30 days counted as 30 days, control 8.7 days. As for the experimental part:
Female ddY strain mice of 4 week age having a mean body weight of 25 g were exposed to X rays of 800 roentgen to examine the number of survival days (dose of LD50 for 30 days was 407 to 466 roentgen).
R-345 (285 mg/kg) was intravenously administered through the tail immediately before exposure to radiation, and on Days 1 and 3 (3 times in total). […] With respect to a mouse survived longer than 30 days, the number of survival days was counted as 30 days to determine the average number of survival days.
Vitamin E (200 mg/kg) was intramuscularly administered 3 days and 1 day before exposure to radiation, and immediately before the exposure (3 times in total).

Data set [5] can be described thus: Stability in water. The class given is physicochemical.
For data set [6], the system named is ddY strain mice. As to the kind of experiment: Recovery from hyperglycemia in Alloxan-induced diabetes. Format: in vivo, mouse (female ddY strain). As to conditions: one week after Alloxan 80 mg/kg i.v.; FIG. 5. The method, then:
After Alloxan (80 mg/kg) was intravenously administered to female ddY strain mice of 4 week age showing a mean body weight of 25 g, 0.2 ml of vitamin E solution (dissolved in liquid paraffin in a concentration of 5%) was intramuscularly injected per mouse once a day from the next day and 0.2 ml of R-345 (dissolved in physiological saline in a concentration of 2 wt %) was intraperitoneally injected. In the control group, 0.2 ml of physiological saline was intraperitoneally injected per mouse. Blood sugar level was measured one week after administration of Alloxan.

Data set [7] can be described thus: Oxidation of the reducing agent by tert-butyl hydroperoxide (absorption intensity). Format: physicochemical. To be noted: addition of tert-butyl hydroperoxide.
The subject of data set [8] is ddY strain mice. Kind of data set: Reducing toxicity of Adriamycin: survival days of mice. The class given is in vivo, mouse (female ddY strain). As to conditions: after Adriamycin; for prolongation of survival days: conclusion; for incidence of death versus control group: vitamin E 200 mg/kg i.p. 4 times or R-345 30 mg/kg i.p. 4 times.

“Also recorded” adds a separate entry of the source.

As to `COc1cccc2c1C(=O)c1c(O)c3c(c(O)c1C2=O)C[C@@](O)(C(=O)CO)C[C@@H]3O[C@H]1C[C@H](N)[C@H](O)[C@H](C)O1` [Adriamycin], in data set [1], the 50% lethal dose (LD50) is given as 14 mg/kg.

`O=C1OC(CO)C(=O)C(O)=C1O` (centres unmarked) [R-345, 2,3,6-trihydroxy-4-oxo-2-hexen-5-olide]: in data set [2], the “TBA value (lipid peroxide) in liver” value was “almost the same as in the control group” and the “calcium content in liver” value is “almost recovered to normal level”. In data set [2] (conclusion), the “increase in TBA value, calcium content and increase in neutral fat versus control group or vitamin E alone” value is on record as “reduced as compared to the control group or the group administered with vitamin E alone”. Also, the “activity of alleviating erythrocyte membrane disturbance induced by a peroxidant, versus ascorbic acid” value in data set [3] (conclusion) is “more effective than ascorbic acid”. In addition, in data set [3], the “amount of lipid peroxide / formation of peroxide” value is “exhibited the activity of inhibiting the formation of peroxide”. In data set [4] (R-345 285 mg/kg i.v. 3 times), the “increase in average number of survival days compared with the control group” value was “slight increase”. Moreover, in data set [4], the “mice survived longer than 30 days” value is recorded as 2 mice, the “mice survived on Day 15” value is listed as 3 out of 20 and the “average number of survival days” value amounted to 12.9 days. In data set [5], the “decomposition in water over a long period of time” value is reported as “tends to be decomposed some or less”. Besides, in data set [6], the blood sugar level result is recorded as “somewhat higher than normal level”. In data set [7], the “oxidation by tert-butyl hydroperoxide” value is “hardly oxidized” and the “reduction in absorption intensity at 345 nm” value was “slight”. In addition, in data set [8] (i.p., 10 mice, R-345 30 mg/kg and/or vitamin E 200 mg/kg, FIG. 2), the “mice survived longer than 50 days” value stood at 2 mice. In addition, in data set [8] (R-345 30 mg/kg i.p. 4 times, FIG. 2b), the “mice died up to about Day 20” value is 8 out of 10. In addition, in data set [8], the “prolongation of survival days” value is reported as “only a slight prolongation” and the “incidence of death versus control group” value is on record as “a slight difference was observed”.

As to `O=C1O[C@H]([C@@H](O)CO)C(O)=C1O` [ascorbic acid], in data set [2], the “TBA value (lipid peroxide) in liver” value was “particularly high TBA value was noted in some cases” and the “calcium content in liver” value is “not lowered to normal level”. Also, the “TBA value (lipid peroxide) in liver” value in data set [2] (listed as AsA) was “some were higher than in the group administered with physiological saline (control group)”. For the same compound, the “amount of lipid peroxide / formation of peroxide” value in data set [3] is listed as “increased”. Further, in data set [7], the “oxidation by tert-butyl hydroperoxide” value was “immediately oxidized” and the “reduction in absorption intensity at 265 nm” value was “markedly reduced”.

As for vitamin E, in data set [2] (CCl4 :CHCl3), the “prevention of increase in TBA value (lipid peroxide level)” value is reported as “effect of preventing increase in TBA value (lipid peroxide level) was noted” and the “prevention of increase of calcium level” value is reported as “not noted”. The “prevention of increase in TBA value (lipid peroxide level)” value in data set [2] (CCl4 :CHCl3, listed as VE) is “effective for preventing the increase in TBA value; also recorded: prevented an increase in TBA value”. In addition, the “recovery of ratio of saturated fatty acid to unsaturated fatty acid in liver” value in data set [2] (Day 2 after CCl4 :CHCl3, FIG. 4c) is reported as “recovery would be slower than in the group administered with no VE”. Further, the “recovery to normal level of calcium content on Day 3” value in data set [2] (Day 3 after CCl4 :CHCl3, conclusion) is reported as “a tendency to delay the recovery to normal level”. Moreover, the “calcium content in liver” value in data set [2] is “not lowered to normal level”. Moreover, the “amount of lipid peroxide / formation of peroxide” value in data set [3] is on record as “exhibited the activity of inhibiting the formation of peroxide”. Also, in data set [4], the “mice survived longer than 30 days” value stood at 2 mice, the “mice survived on Day 15” value was 2 out of 20 and the “average number of survival days” value was determined as 11.8 days. Besides, the blood sugar level result in data set [6] is listed as “somewhat higher than normal level”. Besides, in data set [8], the “prolongation of survival days” value is given as “only a slight prolongation” and the “incidence of death versus control group” value is on record as “almost the same incidence as noted with the control group”. In data set [8] (vitamin E 200 mg/kg i.p. 4 times, FIG. 2c), the “mice survived longer than 31 days” value is listed as “None”.

A word on the LD50: it is the dose at which mortality reaches 50%.

Values taken from patent US5162366A, “Antioxidant composition in vivo comprising enol form δ-lactone of diketogulonic acid” (Nissan Chemical Industries, Ltd., priority 1990, dated 1992).
